This test concerns 11βhsd2 cardiac-specific transgenic mice. As to the kind of experiment: Eplerenone treatment of 11βhsd2 cardiac-specific transgenic mice, echocardiography. In kind it is in vivo, mouse. Conditions: male transgenic mice, chow containing eplerenone approx. 200 mg/kg/day from 4 weeks of age. As to the method:
Starting at 4 weeks of age male transgenic mice were supplied with either chow containing eplerenone (approximate dose of 200 mg/kg/day) to eat or normal chow.
Echocardiograms were acquired using a Sonos 5500 echocardiographic system equipped with a 15-MHz linear-array transducer (Agilent, Andover, Mass.). Images were obtained from mice lightly anesthetized with 1-2% isoflurane (AErrane; Baxter, Inc., Deerfield, Ill.) lying in the left lateral decubitus position. Care was taken to maintain adequate contact while avoiding excessive pressure on the chest wall. Two-dimensional parasternal long and short-axis images of the left ventricle were obtained. Two-dimensional targeted M-mode tracings were recorded from the parasternal short-axis view at the level of the papillary muscles at a sweep speed of 150 mm/s. All echocardiograms were recorded digitally on a rewritable magneto-optical disk. Measurements and calculations used are as follows: Left Ventricular End diastolic (EDV) and systolic (ESV) volumes were calculated via the method of discs from direct measurement systolic (LVAs) and diastolic (LVAd) areas. Ejection Fraction (EF) was calculated from systolic and diastolic volumes with the following formula: EF=(EDV−ESV)/EDV×100. […] Heart rate (HR) was calculated by measuring the R-R interval in M-mode and using the formula: HR=60(sec/min)/R-R interval(sec/beat). […]

We go through one molecule from patent US20030221207A1, “Cardiac-specific 11beta hydroxysteroid dehydrogenase type 2 transgenic mice” (Pharmacia Corporation, Global Patent Department, priority 2002, published 2003).

As for `COC(=O)[C@@H]1CC2=CC(=O)CC[C@]2(C)[C@@]23O[C@@H]2C[C@@]2(C)[C@@H](CC[C@@]24CCC(=O)O4)[C@H]13` [eplerenone], under “2.5 months of treatment”, the “development of left ventricular dysfunction and heart failure” value was “significantly attenuated”. Also, the myocardial function result (after 2.5 months of treatment, versus normal chow) is reported as “significantly improved”.
